Reference: patent EP1268431B1 (Wyeth, priority 2000, dated 2001)
Several values for one entry are separate records, joined by “and”; a condition that tells them apart may be missing. Equal values may be shown once. Read-outs that look alike come from different tables or passages of the source.

What was measured:
c-Src = target: T1, c-Src (Homo sapiens, UniProt P12931); assay: c-Src Kinase Assay (ELISA format); type: biochemical; details: for inhibition at 0.01 µM: at 10 nM
T1 construct: purchased Upstate Biotechnologies
T1 sequence (P12931 whole entry, species assumed): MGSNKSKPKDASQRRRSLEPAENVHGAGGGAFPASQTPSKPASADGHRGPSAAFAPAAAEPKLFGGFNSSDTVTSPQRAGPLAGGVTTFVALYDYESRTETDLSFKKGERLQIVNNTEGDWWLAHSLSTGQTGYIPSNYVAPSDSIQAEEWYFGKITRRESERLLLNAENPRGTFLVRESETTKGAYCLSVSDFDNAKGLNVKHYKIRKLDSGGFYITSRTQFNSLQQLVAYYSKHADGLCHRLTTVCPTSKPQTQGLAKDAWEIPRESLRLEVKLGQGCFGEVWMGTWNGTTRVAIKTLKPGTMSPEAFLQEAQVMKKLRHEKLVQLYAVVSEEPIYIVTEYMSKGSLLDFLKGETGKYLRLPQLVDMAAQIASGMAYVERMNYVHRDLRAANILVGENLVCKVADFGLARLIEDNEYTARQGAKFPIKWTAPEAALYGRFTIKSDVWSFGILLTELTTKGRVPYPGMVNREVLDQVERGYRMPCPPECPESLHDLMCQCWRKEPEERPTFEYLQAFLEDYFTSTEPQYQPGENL
In short: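 Partially purified Src preincubated with compound and biotinylated peptide 10 min at 30 °C in Tris-HCl pH 7.5 with MgCl2, EGTA, vanadate; ATP-started reaction ran 1 h at 30 °C, EDTA-stopped. Phosphopeptide captured on streptavidin, detected by HRP anti-phosphotyrosine; % inhibition = (1 − Abs/Abs(max)) × 100.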

[1] = system: Rat2 fibroblasts stably transformed with a plasmid containing a CMV promotor controlled v-Src/Hu c-Src fusion gene; assay: Anchorage Independent Src-transformed Fibroblast Proliferation Assay
[2] = Rattus norvegicus, Rat2, 120 h, read-out: anch-indep src-tx fib IC50, suspension growth, MTS on Day 5
[3] = read-out: anch-indep src-tx fib IC50, suspension growth, MTS on Day 5

SMILES | IC50 (c-Src) | IC50 [1, 2] | IC50 [1, 3] | inhibition at 10 µM (c-Src; at 10 µM) | inhibition at 0.01 µM (c-Src)
COc1cc(Nc2c(C#N)cnc3cc(-c4ccc(CO)cc4)ccc23)c(Cl)cc1Cl [Example 101, 4-(2,4-Dichloro-5-methoxyanilino)-7-[4-(hydroxymethyl)phenyl]-3-quinolinecarbonitrile] | 15 nM | > 10000 nM | – | – | –
COc1cc(Nc2c(C#N)cnc3cc(-c4ccc(CCl)cc4)ccc23)c(Cl)cc1Cl [Example 102, 7-[4-(Chloromethyl)phenyl]-4-(2,4-dichloro-5-methoxyanilino)-3-quinolinecarbonitrile] | 18 nM | 7500 nM | – | – | –
COc1cc(Nc2c(C#N)cnc3cc(-c4ccc[nH]4)ccc23)c(Cl)cc1Cl [Example 104, 4-(2,4-Dichloro-5-methoxyanilino)-7-(1H-pyrrol-2-yl)-3-quinolinecarbonitrile] | 14 nM | 560 nM | – | – | –
COc1cc(Nc2c(C#N)cnc3cc(-c4ccc(-c5nnn[nH]5)cc4)ccc23)c(Cl)cc1Cl [Example 105] | 10 nM | > 10000 nM | 5900 nM | – | –
COc1cc(Nc2c(C#N)cnc3cc(-c4ncccc4CN4CCOCC4)ccc23)c(Cl)cc1Cl [Example 111, 4-(2,4-Dichloro-5-methoxyanilino)-7-[3-(morpholin-4-ylmethyl)-pyridin-2-yl]-3-quinolinecarbonitrile] | 410 nM | > 10000 nM | – | – | –
COc1cc(Nc2c(C#N)cnc3cc(-c4cccc(CN5CCN(C)CC5)c4)ccc23)c(Cl)cc1Cl [Example 113, 4-(2,4-Dichloro-5-methoxyanilino)-7-{3-[(4-methyl-1-piperazinyl)methyl]phenyl}-3-quinolinecarbonitrile] | 10 nM | 1400 nM | – | – | –
COc1cc(Nc2c(C#N)cnc3cc(-c4ccccc4C=O)ccc23)c(Cl)cc1Cl [Example 114, 4-(2,4-Dichloro-5-methoxyanilino)-7-(2-formylphenyl)-3-quinolinecarbonitrile] | 2200 nM | > 10000 nM | – | – | –
COc1cc(Nc2c(C#N)cnc3cc(-c4ccccc4CN4CCOCC4)ccc23)c(Cl)cc1Cl [Example 115, 4-(2,4-Dichloro-5-methoxyanilino)-7-[2-(4-morpholinylmethyl)phenyl]-3-quinolinecarbonitrile] | 5000 nM | > 10000 nM | – | – | –
COc1cc(Nc2c(C#N)cnc3cc(-c4cccc5ccccc45)ccc23)c(Cl)cc1Cl [Example 116, 4-(2,4-Dichloro-5-methoxyanilino)-7-(1-naphthyl)-3-quinolinecarbonitrile] | – | > 10000 nM | – | 25% | –
COc1cc(Nc2c(C#N)cnc3cc(-c4ccc5ccccc5c4)ccc23)c(Cl)cc1Cl [Example 117, 4-(2,4-Dichloro-5-methoxyanilino)-7-(2-naphthyl)-3-quinolinecarbonitrile] | 210 nM and 160 nM and 120 nM | 6900 nM | – | – | –
COc1cc(Nc2c(C#N)cnc3cc(-c4cccc(NC(C)=O)c4)ccc23)c(Cl)cc1Cl [Example 118, N-{3-[3-Cyano-4-(2,4-dichloro-5-methoxyanilino)-7-quinolinyl]phenyl}acetamide] | 160 nM | 3000 nM | – | – | –
COc1cc(Nc2c(C#N)cnc3cc(-c4cc5ccccc5o4)ccc23)c(Cl)cc1Cl [Example 119, 7-(1-Benzofuran-2-yl)-4-(2,4-dichloro-5-methoxyanilino)-3-quinolinecarbonitrile] | 130 nM | > 10000 nM | – | – | –
COc1cc(Nc2c(C#N)cnc3cc(-c4cc5ccccc5s4)ccc23)c(Cl)cc1Cl [Example 120] | 170 nM | – | > 10000 nM | – | –
COc1cc(Nc2c(C#N)cnc3cc(-c4ccc(C(=O)O)cc4)ccc23)c(Cl)cc1Cl [Example 121, 4-[3-Cyano-4-(2,4-dichloro-5-methoxyanilino)-7-quinolinyl]benzoic acid] | 4.8 nM and 1.8 nM | > 10000 nM | – | – | –
COc1ccc(Cl)c(Nc2c(C#N)cnc3cc(-c4csc(CN5CCOCC5)c4)ccc23)c1 [Example 131, 4-(2-chloro-5-methoxyanilino)-7-[5-(4-morpholinylmethyl)-3-thienyl]-3-quinolinecarbonitrile] | 2 nM | 90 nM | – | – | –
COc1cc(Nc2c(C#N)cnc3cc(-c4ccc(CN5CCOCC5)c(CN5CCOCC5)c4)ccc23)c(Cl)cc1C [Example 133, 7-[3,4-bis(4-morpholinylmethyl)phenyl]-4-(2-chloro-5-methoxy-4-methylanilino)-3-quinolinecarbonitrile] | 7 nM | 730 nM | – | – | –
COc1cc(Nc2c(C#N)cnc3cc(/C=C/c4ccccc4)ccc23)c(Cl)cc1Cl [Example 139, 4-(2,4-dichloro-5-methoxyanilino)-7-[(E)-2-phenylethenyl]-3-quinolinecarbonitrile] | 300 nM and 340 nM | > 10000 nM | – | – | –

SMILES | IC50 (c-Src) | IC50 [1, 2] | IC50 [1, 3] | inhibition at 10 µM (c-Src; at 10 µM) | inhibition at 0.01 µM (c-Src)
COc1cc(Nc2c(C#N)cnc3cc(C#Cc4ccccc4)ccc23)c(Cl)cc1Cl [Example 140, 4-(2,4-dichloro-5-methoxyanilino)-7-(2-phenylethynyl)-3-quinolinecarbonitrile] | 240 nM and 200 nM | > 10000 nM | – | – | –
COc1cc(Nc2c(C#N)cnc3cc(C#Cc4ccc(C)cc4)ccc23)c(Cl)cc1Cl [Example 141, 4-(2,4-dichloro-5-methoxyanilino)-7-[2-(4-methylphenyl)ethynyl]-3-quinolinecarbonitrile] | 750 nM | > 10000 nM | – | – | –
COc1cc(Nc2c(C#N)cnc3cc(/C=C/C(=O)OC(C)(C)C)ccc23)c(Cl)cc1Cl [Example 142, tert-butyl (E)-3-[3-cyano-4-(2,4-dichloro-5-methoxyanilino)-7-quinolinyl]-2-propenoate] | 31 nM | > 10000 nM | – | – | –
COc1cc(Nc2c(C#N)cnc3cc(C#CCO)ccc23)c(Cl)cc1Cl [Example 143, 4-(2,4-dichloro-5-methoxyanilino)-7-(3-hydroxy-1-propynyl)-3-quinolinecarbonitrile] | 26 nM | > 10000 nM | – | – | –
CCOC(=O)CC1CCN(Cc2ccc(-c3ccc4c(Nc5cc(OC)c(Cl)cc5Cl)c(C#N)cnc4c3)cc2)CC1 [Example 144, ethyl (1-{4-[3-cyano-4-(2,4-dichloro-5-methoxyanilino)-7-quinolinyl]benzyl}-4-piperidinyl)acetate] | 4 nM | 92 nM | – | – | –
CCOC(=O)C1CCCCN1Cc1ccc(-c2ccc3c(Nc4cc(OC)c(Cl)cc4Cl)c(C#N)cnc3c2)cc1 (centres unmarked) [Example 145, ethyl 1-{4-[3-cyano-4-(2,4-dichloro-5-methoxyanilino)-7-quinolinyl]benzyl}-2-piperidinecarboxylate] | – | > 10000 nM | – | – | 17%
COc1cc(Nc2c(C#N)cnc3cc(-c4ccc(CN5CCCCC5C(=O)O)cc4)ccc23)c(Cl)cc1Cl (centres unmarked) [Example 147, 1-{4-[3-cyano-4-(2,4-dichloro-5-methoxyanilino)-7-quinolinyl]benzyl}-2-piperidinecarboxylic acid] | 0.47 nM | 4600 nM | – | – | –
CCOC(=O)C1CCCN(Cc2ccc(-c3ccc4c(Nc5cc(OC)c(Cl)cc5Cl)c(C#N)cnc4c3)cc2)C1 (centres unmarked) [Example 148, ethyl 1-(4-{3-cyano-4-[(2,4-dichloro-5-methoxyphenyl)amino]-7-quinolinyl}benzyl)-3-piperidinecarboxylate] | 8.6 nM | 2100 nM | – | – | –
COc1cc(Nc2c(C#N)cnc3cc(-c4ccc(CN5CCCC(C(=O)O)C5)cc4)ccc23)c(Cl)cc1Cl (centres unmarked) [Example 149, 1-(4-{3-cyano-4-[(2,4-dichloro-5-methoxyphenyl)amino]-7-quinolinyl}benzyl)-3-piperidinecarboxylic acid] | 0.67 nM | 2500 nM | – | – | –
COc1cc(Nc2c(C#N)cnc3cc(-c4ccc(CN5CCS(=O)(=O)CC5)cc4)ccc23)c(Cl)cc1Cl [Example 150, 4-[(2,4-dichloro-5-methoxyphenyl)amino]-7-{4-[(1,1-dioxido-4-thiomorpholinyl)methyl]phenyl}-3-quinolinecarbonitrile] | 13 nM and 6.6 nM | 500 nM | 520 nM | – | –
COc1cc(Nc2c(C#N)cnc3cc(-c4ccc(CO)n4C)ccc23)c(Cl)cc1Cl [Example 162, 4-(2,4-dichloro-5-methoxyanilino)-7-[5-(hydroxymethyl)-1-methyl-1H-pyrrol-2-yl]-3-quinolinecarbonitrile] | 76 nM | > 10000 nM | – | – | –
COc1cc(Nc2c(C#N)cnc3cc(-c4sccc4C=O)ccc23)c(Cl)cc1Cl [Example 163, 4-(2,4-dichloro-5-methoxyanilino)-7-(3-formyl-2-thienyl)-3-quinolinecarbonitrile] | > 1000 nM | > 10000 nM | – | – | –
COc1cc(Nc2c(C#N)cnc3cc(-c4cccn4C(=O)OC(C)(C)C)ccc23)c(Cl)cc1Cl [Example 164, tert-butyl 2-[3-cyano-4-(2,4-dichloro-5-methoxyanilino)-7-quinolinyl]-1H-pyrrole-1-carboxylate] | > 1000 nM | > 10000 nM | – | – | –
COc1cc(Nc2c(C#N)cnc3cc(-c4ccc(-c5ccccc5)cc4)ccc23)c(Cl)cc1Cl [Example 165, 7-[1,1'-biphenyl]-4-yl-4-(2,4-dichloro-5-methoxyanilino)-3-quinolinecarbonitrile] | – | > 10000 nM | – | – | 28%
COc1cc(Nc2c(C#N)cnc3cc(C#CCN4CCOCC4)c(OC)cc23)c(Cl)cc1Cl [Example 166, 4-(2,4-dichloro-5-methoxyanilino)-6-methoxy-7-[3-(4-morpholinyl)-1-propynyl]-3-quinoline-carbonitrile] | 5.5 nM | 720 nM | – | – | –
COc1cc(Nc2c(C#N)cnc3cc(-c4csc(CN5CCOCC5)c4)ccc23)c(C)cc1Cl [Example 167, 4-(4-chloro-5-methoxy-2-methylanilino)-7-[5-(4-morpholinylmethyl)-3-thienyl]-3-quinolinecarbonitrile] | 12 nM and 16 nM | 900 nM | – | – | –
